From patent publication US10550105B2 (Ribon Therapeutics Inc., priority 2018, dated 2020)

Molecular target: PARP7 (Homo sapiens (Human), UniProt Q7Z3E1)
Test: Enzymatic assay for inhibition of PARP7: TR-FRET displacement of biotinylated Probe A from the TIPARP active site
Assay type: binding
Settings: Table A-1
In short: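 Displacement of biotinylated Probe A from TIPARP was measured as the 665/615 nm time-resolved FRET ratio (excitation 320 nm, 90 μs delay) after a further 30 min at 25 °C. Inhibition across compound concentrations was fitted by dose-response regression, with the Hill slope free or fixed at 1 (3-parameter fit).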

Sequence of PARP7 (Q7Z3E1 whole entry): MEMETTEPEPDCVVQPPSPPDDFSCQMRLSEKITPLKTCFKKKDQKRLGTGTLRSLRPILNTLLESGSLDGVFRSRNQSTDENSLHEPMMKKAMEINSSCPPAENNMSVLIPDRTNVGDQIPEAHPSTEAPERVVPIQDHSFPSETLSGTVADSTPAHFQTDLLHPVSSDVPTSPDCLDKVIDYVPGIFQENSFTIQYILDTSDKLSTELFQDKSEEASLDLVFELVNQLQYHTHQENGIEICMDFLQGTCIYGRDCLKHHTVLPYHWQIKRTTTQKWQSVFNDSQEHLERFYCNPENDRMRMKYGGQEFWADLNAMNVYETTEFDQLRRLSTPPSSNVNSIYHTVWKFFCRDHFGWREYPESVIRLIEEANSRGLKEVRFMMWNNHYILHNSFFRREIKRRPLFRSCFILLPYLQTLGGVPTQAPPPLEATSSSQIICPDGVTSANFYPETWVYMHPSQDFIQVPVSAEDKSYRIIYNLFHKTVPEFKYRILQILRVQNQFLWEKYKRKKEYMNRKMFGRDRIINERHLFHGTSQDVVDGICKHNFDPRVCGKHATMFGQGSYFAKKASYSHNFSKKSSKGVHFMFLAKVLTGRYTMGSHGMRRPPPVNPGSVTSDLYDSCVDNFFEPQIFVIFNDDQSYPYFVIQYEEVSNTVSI

IC50 | SMILES
< 100 nM | N#Cc1ccc(N2CCN(C(=O)CNCC[C@@H]3CCCN3c3cn[nH]c(=O)c3C(F)(F)F)CC2)nc1 [Example 89, 6-[4-[2-([2-[(2S)-1-[6-oxo-5-(trifluoromethyl)-1,6-dihydropyridazin-4-yl]pyrrolidin-2-yl]ethyl]amino)acetyl]piperazin-1-yl]pyridine-3-carbonitrile]
< 100 nM | N#Cc1ccc(N2CCN(CCCOC[C@@H]3CCCN3c3cn[nH]c(=O)c3C(F)(F)F)CC2)nc1 [Example 90]
100 to 1000 nM | CN(CC[C@@H]1CCCN1c1cn[nH]c(=O)c1C(F)(F)F)CC(=O)N1CCN(c2ccc(C#N)cn2)CC1 [Example 91]
< 100 nM | N#Cc1ccc(N2CCN(C(=O)C3CCC(OCC4CCN(c5cn[nH]c(=O)c5C(F)(F)F)C4)CC3)CC2)nc1 (centres unmarked) [Example 97, 6-[4-[4-([1-[6-oxo-5-(trifluoromethyl)-1,6-dihydropyridazin-4-yl]pyrrolidin-3-yl]methoxy)cyclohexanecarbonyl]piperazin-1-yl]pyridine-3-carbonitrile]
100 to 1000 nM | N#Cc1ccc(OC2CCC(NC(=O)CCOC[C@@H]3CCCN3c3cn[nH]c(=O)c3C(F)(F)F)CC2)nc1 (stereo partly drawn) [Example 99, N-(4-[(5-cyanopyridin-2-yl)oxy]cyclohexyl]-3-[[(2S)-1-[6-oxo-5-(trifluoromethyl)-1,6-dihydropyridazin-4-yl]pyrrolidin-2-yl]methoxy]propanamide]
< 100 nM | C[C@@H]1CN(c2ccc(C#N)cn2)CCN1C(=O)CCOC[C@@H]1CCCN1c1cn[nH]c(=O)c1C(F)(F)F [Example 100A, 6-[(3R)-3-methyl-4-(3-[[(2S)-1-[6-oxo-5-(trifluoromethyl)-1,6-dihydropyridazin-4-yl]pyrrolidin-2-yl]methoxy]propanoyl)piperazin-1-yl]pyridine-3-carbonitrile]
< 100 nM | C[C@H]1CN(c2ccc(C#N)cn2)CCN1C(=O)CCOC[C@@H]1CCCN1c1cn[nH]c(=O)c1C(F)(F)F [Example 100B, 6-[(3S)-3-methyl-4-(3-[[(2S)-1-[6-oxo-5-(trifluoromethyl)-1,6-dihydropyridazin-4-yl]pyrrolidin-2-yl]methoxy]propanoyl)piperazin-1-yl]pyridine-3-carbonitrile]
< 100 nM | N#Cc1ccc(N2CC3CCC2CN3C(=O)CCOC[C@@H]2CCCN2c2cn[nH]c(=O)c2C(F)(F)F)nc1 (stereo partly drawn) [Example 101, 6-[5-(3-[[(2S)-1-[6-oxo-5-(trifluoromethyl)-1,6-dihydropyridazin-4-yl]pyrrolidin-2-yl]methoxy]propanoyl)-2,5-diazabicyclo[2.2.2]octan-2-yl]pyridine-3-carbonitrile]
100 to 1000 nM | N#Cc1ccc(N2CCC3(CCN(C(=O)CCOC[C@@H]4CCCN4c4cn[nH]c(=O)c4C(F)(F)F)C3)CC2)nc1 [Example 103, 6-[2-(3-[[(2S)-1-[6-oxo-5-(trifluoromethyl)-1,6-dihydropyridazin-4-yl]pyrrolidin-2-yl]methoxy]propanoyl)-2,8-diazaspiro [4.5]decan-8-yl]pyridine-3-carbonitrile]
≥ 1000 nM | N#Cc1ccc(N2CCC3(CCN(C(=O)CCOC[C@@H]4CCCN4c4cn[nH]c(=O)c4C(F)(F)F)CC3)C2)nc1 [Example 104, 6-[8-(3-[[(2S)-1-[6-oxo-5-(trifluoromethyl)-1,6-dihydropyridazin-4-yl]pyrrolidin-2-yl]methoxy]propanoyl)-2,8-diazaspiro[4.5]decan-2-yl]pyridine-3-carbonitrile]

SMILES | IC50
N#Cc1ccc(N2C3CCC2CN(C(=O)CCOC[C@@H]2CCCN2c2cn[nH]c(=O)c2C(F)(F)F)C3)nc1 [Example 102, 6-[3-(3-[[(2S)-1-[6-oxo-5-(trifluoromethyl)-1,6-dihydropyridazin-4-yl]pyrrolidin-2-yl]methoxy]propanoyl)-3,8-diazabicyclo[3.2.1]octan-8-yl]pyridine-3-carbonitrile] | < 100 nM
